Source: patent publication US7476756B2, “Alkyl-, alkenyl- and alkynylcarbamate derivatives, their preparation and their application in therapeutics” (Sanofi-Aventis, priority 2005, dated 2009)

biological target: T1, enzyme FAAH (Fatty Acid Amido Hydrolase) (Mus musculus, UniProt O08914); assay: radioenzymatic test of FAAH inhibition (hydrolysis of ((1-3H)ethanolamine)-anandamide, mouse brain membrane homogenates); assay type: biochemical; details: mouse brain membrane homogenate; 10 μM anandamide; 15 minutes at 25° C.; read-out: IC50 (concentration which inhibits the control enzymatic activity of FAAH by 50%)
T1 construct: The membrane homogenates are prepared at the time of use by homogenization of the tissues with a Polytron; from tissue; host or cells: mouse brain (minus the cerebellum), membrane homogenate
T1 sequence (O08914 1-579): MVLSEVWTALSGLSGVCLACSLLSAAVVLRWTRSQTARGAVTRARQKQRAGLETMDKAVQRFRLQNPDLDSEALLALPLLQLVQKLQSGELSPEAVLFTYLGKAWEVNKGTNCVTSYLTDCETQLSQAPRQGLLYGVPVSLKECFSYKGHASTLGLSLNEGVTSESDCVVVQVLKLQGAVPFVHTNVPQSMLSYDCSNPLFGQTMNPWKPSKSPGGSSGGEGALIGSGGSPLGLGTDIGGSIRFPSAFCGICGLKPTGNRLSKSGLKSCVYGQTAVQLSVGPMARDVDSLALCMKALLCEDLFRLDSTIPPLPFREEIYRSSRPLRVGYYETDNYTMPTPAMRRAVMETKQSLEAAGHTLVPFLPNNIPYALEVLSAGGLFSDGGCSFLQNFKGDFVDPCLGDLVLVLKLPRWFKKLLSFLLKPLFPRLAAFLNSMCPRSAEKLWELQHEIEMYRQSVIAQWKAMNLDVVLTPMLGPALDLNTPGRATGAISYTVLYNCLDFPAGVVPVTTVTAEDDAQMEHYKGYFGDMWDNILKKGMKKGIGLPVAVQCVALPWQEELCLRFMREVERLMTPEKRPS
Description: The compounds of the invention have formed the subject of pharmacological trials which make it possible to determine their inhibitory effect on the enzyme FAAH (Fatty Acid Amido Hydrolase).
Thus, mouse brains (minus the cerebellum) are removed and stored at −80° C. The membrane homogenates are prepared at the time of use by homogenization of the tissues with a Polytron in a 10 mM Tris-HCl buffer (pH 8) comprising 150 mM NaCl and 1 mM EDTA. The enzymatic reaction is subsequently carried out in 70 μl of buffer comprising bovine serum albumin free from fatty acids (1 mg/ml). The test compounds, at various concentrations, the ((1-^3H)ethanolamine)-anandamide (specific activity of 15-20 Ci/mmol), diluted to 10 μM with non-radiolabelled anandamide, and the membrane preparation (400 μg of frozen tissue per assay) are successively added. After 15 minutes at 25° C., the enzymatic reaction is halted by addition of 140 μl of chloroform/methanol (2:1). The mixture is stirred for 10 minutes and is then centrifuged at 3500 g for 15 minutes. An aliquot (30 μl) of the aqueous phase comprising the (1-^3H)ethanolamine is counted by liquid scintillation.

| IC50 [nM] | Compound |
| --- | --- |
| 91 | CCCCCCCNC(=O)OCC(=O)NC [Compound 13, 2-(Methylamino)-2-oxoethyl (hept-1-yl)carbamate] |
| 89 | CCCCCCC(C)NC(=O)OCC(=O)NC (stereo not drawn) [Compound 24, 2-(Methylamino)-2-oxoethyl (1-methylhept-1-yl)carbamate] |

Further lines, the compound ahead of its results:

| Compound | IC50 [nM] |
| --- | --- |
| CNC(=O)COC(=O)NC1CCCCCCC1 [Compound 22, 2-(Methylamino)-2-oxoethyl (cyclooct-1-yl)carbamate] | 696 |
| CCCCCCCC/C=C/CCCCCCCCCCNC(=O)OCC(=O)NC [Compound 47, 2-(Methylamino)-2-oxoethyl ((11E)-icosa-11-en-1-yl)carbamate] | 154 |

system: not given; assay: not given; details: not given

| melting point [°C] | Compound |
| --- | --- |
| 132 to 134 | CCCCCNC(=O)OC(C)C(N)=O (stereo not drawn) [Compound 1, 2-Amino-1-methyl-2-oxoethyl (pent-1-yl)carbamate] |
| 86 to 88 | CCCCCCNC(=O)OCC(=O)NC [Compound 10, 2-(Methylamino)-2-oxoethyl (hex-1-yl)carbamate] |
| 123 to 125 | CCCCCCNC(=O)OC(C)C(N)=O (stereo not drawn) [Compound 11, 2-Amino-1-methyl-2-oxoethyl (hex-1-yl)carbamate] |
| 87 to 89 | CCCCCCCNC(=O)OCC(=O)NC [Compound 13, 2-(Methylamino)-2-oxoethyl (hept-1-yl)carbamate] |
| 80 to 82 | CCCCC/C=C/CNC(=O)OCC(=O)NC [Compound 14, 2-(Methylamino)-2-oxoethyl ((2E)-oct-2-en-1-yl)carbamate] |
| 126 to 128 | CCCCC/C=C/CNC(=O)OCC(N)=O [Compound 15, 2-Amino-2-oxoethyl ((2E)-oct-2-en-1-yl)carbamate] |
| 62 to 64 | CCCC/C=C\CCNC(=O)OCC(=O)NC [Compound 16, 2-(Methylamino)-2-oxoethyl ((3Z)-oct-3-en-1-yl)carbamate] |
| 113 to 115 | CCCC/C=C\CCNC(=O)OCC(N)=O [Compound 17, 2-Amino-2-oxoethyl ((3Z)-oct-3-en-1-yl)carbamate] |
| 122 to 124 | CC/C=C\CCCCNC(=O)OCC(N)=O [Compound 18, 2-Amino-2-oxoethyl ((5Z)-oct-5-en-1-yl)carbamate] |
| 69 to 71 | CC/C=C\CCCCNC(=O)OCC(=O)NC [Compound 19, 2-(Methylamino)-2-oxoethyl ((5Z)-oct-5-en-1-yl)carbamate] |
| 122 to 124 | C=CCCCCCCNC(=O)OCC(N)=O [Compound 20, 2-Amino-2-oxoethyl (oct-7-en-1-yl)carbamate] |
| 72 to 74 | C=CCCCCCCNC(=O)OCC(=O)NC [Compound 21, 2-(Methylamino)-2-oxoethyl (oct-7-en-1-yl)carbamate] |
| 130 to 132 | CCCCCCCCNC(=O)OC(C)C(N)=O (stereo not drawn) [Compound 23, 2-Amino-1-methyl-2-oxoethyl (oct-1-yl)carbamate] |
| 95 to 97 | CCCCCCCCCNC(=O)OCC(=O)NC [Compound 25, 2-(Methylamino)-2-oxoethyl (non-1-yl)carbamate] |
| 98 to 100 | CCCCCCCCCCNC(=O)OCC(=O)NC [Compound 26, 2-(Methylamino)-2-oxoethyl decylcarbamate] |
| 133 to 135 | CCCCCCCCCCNC(=O)OC(C)C(N)=O (stereo not drawn) [Compound 27, 2-Amino-1-methyl-2-oxoethyl (dec-1-yl)carbamate] |
| 71 to 73 | CCCCCCCCCC(C)NC(=O)OCC(=O)NC (stereo not drawn) [Compound 28, 2-(Methylamino)-2-oxoethyl (1-methyldec-1-yl)carbamate] |
| 103 to 105 | CCCCCCCCCCCCNC(=O)OCC(=O)NC [Compound 30, 2-(Methylamino)-2-oxoethyl (dodec-1-yl)carbamate] |
| 106 to 108 | CCCCCCCCCCCCCCNC(=O)OCC(=O)NC [Compound 33, 2-(Methylamino)-2-oxoethyl (tetradec-1-yl)carbamate] |
| 127 to 129 | CCCCCC/C=C\CCCCCCCCNC(=O)OCC(N)=O [Compound 34, 2-Amino-2-oxoethyl ((9Z)-hexadec-9-en-1-yl)carbamate] |
| 69 to 71 | CCCCCC/C=C\CCCCCCCCNC(=O)OCC(=O)NC [Compound 35, 2-(Methylamino)-2-oxoethyl ((9Z)-hexadec-9-en-1-yl)carbamate] |
| 107 to 109 | CCCCCCCCCCCCCCCNC(=O)OCC(=O)NC [Compound 37, 2-(Methylamino)-2-oxoethyl (pentadec-1-yl)carbamate] |

Continued, compound first:

| Compound | melting point [°C] |
| --- | --- |
| CCC/C=C/CNC(=O)OCC(=O)NC [Compound 2, 2-(Methylamino)-2-oxoethyl ((2E)-hex-2-en-1-yl)carbamate] | 85 to 87 |
| CCC/C=C/CNC(=O)OCC(N)=O [Compound 3, 2-Amino-2-oxoethyl ((2E)-hex-2-en-1-yl)carbamate] | 126 to 128 |
| CCC/C=C\CNC(=O)OCC(N)=O [Compound 4, 2-Amino-2-oxoethyl ((2Z)-hex-2-en-1-yl)carbamate] | 102 to 104 |
| CC/C=C/CCNC(=O)OCC(N)=O [Compound 6, 2-Amino-2-oxoethyl ((3E)-hex-3-en-1-yl)carbamate] | 138 to 140 |
| CC/C=C\CCNC(=O)OCC(=O)NC [Compound 7, 2-(Methylamino)-2-oxoethyl ((3Z)-hex-3-en-1-yl)carbamate] | 72 to 74 |
| CC/C=C/CCNC(=O)OCC(=O)NC [Compound 8, 2-(Methylamino)-2-oxoethyl ((3E)-hex-3-en-1-yl)carbamate] | 88 to 90 |
| CCC/C=C\CNC(=O)OCC(=O)NC [Compound 9, 2-(Methylamino)-2-oxoethyl ((2Z)-hex-2-en-1-yl)carbamate] | 74 to 76 |
| CNC(=O)COC(=O)NC1CCCCCCC1 [Compound 22, 2-(Methylamino)-2-oxoethyl (cyclooct-1-yl)carbamate] | 81 to 83 |
| CNC(=O)COC(=O)NC1CCCCCCCCCCC1 [Compound 29, 2-(Methylamino)-2-oxoethyl (cyclododec-1-yl)carbamate] | 171 to 173 |
| CC/C=C\CCCCCCCCCCNC(=O)OCC(N)=O [Compound 31, 2-amino-2-oxoethyl ((11Z)-tetradec-11-en-1-yl)carbamate] | 120 to 123 |
| CC/C=C\CCCCCCCCCCNC(=O)OCC(=O)NC [Compound 32, 2-(Methylamino)-2-oxoethyl ((11Z)-tetradec-11-en-1-yl)carbamate] | 79 to 81 |
| CCCCCCCCCCCCC(C)NC(=O)OCC(=O)NC (stereo not drawn) [Compound 36, 2-(Methylamino)-2-oxoethyl (1-methyltridecyl)carbamate] | 82 to 84 |
| CCCCCCCCCCC/C=C\CCCCCNC(=O)OCC(N)=O [Compound 39, 2-Amino-2-oxoethyl ((6Z)-octadec-6-en-1-yl)carbamate] | 100 to 102 |
| CCCCCCCCCCC/C=C\CCCCCNC(=O)OCC(=O)NC [Compound 40, 2-(Methylamino)-2-oxoethyl ((6Z)-octadec-6-en-1-yl)carbamate] | 72 to 74 |
| CCCCCCCCCCCCCCCCCCCNC(=O)OCC(=O)NC [Compound 41, 2-(Methylamino)-2-oxoethyl ((methyl)octadec-1-yl)carbamate] | 85 to 87 |
| CCCCCCCCCCCCCCCCCCCNC(=O)OCC(=O)NC [Compound 43, 2-(Methylamino)-2-oxoethyl (nonadec-1-yl)carbamate] | 113 to 115 |
| CC/C=C/C/C=C/C/C=C/CCCCCCCCCCNC(=O)OCC(=O)NC [Compound 45, 2-(Methylamino)-2-oxoethyl ((11E,14E,17E)-icosa-11,14,17-trien-1-yl)carbamate] | 57 to 59 |
| CCCCC/C=C/C/C=C/CCCCCCCCCCNC(=O)OCC(=O)NC [Compound 46, 2-(Methylamino)-2-oxoethyl ((11E,14E)-icosa-11,14-dien-1-yl)carbamate] | 58 to 60 |
| CCCCCCCC/C=C/CCCCCCCCCCNC(=O)OCC(=O)NC [Compound 47, 2-(Methylamino)-2-oxoethyl ((11E)-icosa-11-en-1-yl)carbamate] | 77 to 79 |
